From ChEMBL document CHEMBL3046206, “Synthesis of new 4-(2,5-dimethylpyrrol-1-yl)/4-pyrrol-1-yl benzoic acid hydrazide analogs and some derived oxadiazole, triazole and pyrrole ring systems: a novel class of potential antibacterial, antifungal and antitubercular agents” (Med Chem Res, 2013)
In brackets after ≈: the same amount, converted by molar mass.

What was measured:
Escherichia coli = assay: Antibacterial activity against Escherichia coli after 18 hr by broth microdilution technique; type: functional
Candida tropicalis = assay: Antifungal activity against Candida tropicalis after 18 hr by broth microdilution technique; type: functional
Pseudomonas aeruginosa = assay: Antibacterial activity against Pseudomonas aeruginosa after 18 hr by broth microdilution technique; type: functional
A549 = assay: Cytotoxicity against Homo sapiens (human) A549 cells after 72 hr by MTT assay; type: cell-based; settings: A549, 72 h
Enterococcus faecalis = assay: Antibacterial activity against Enterococcus faecalis after 18 hr by broth microdilution technique; type: functional
Vero = assay: Cytotoxicity against Chlorocebus aethiops (African green monkey) Vero cells after 72 hr by MTT assay; type: cell-based; settings: Chlorocebus sabaeus
Saccharomyces cerevisiae = assay: Antifungal activity against Saccharomyces cerevisiae after 18 hr by broth microdilution technique; type: functional
Staphylococcus aureus = assay: Antibacterial activity against Staphylococcus aureus after 18 hr by broth microdilution technique; type: functional
Bacillus subtilis = assay: Antibacterial activity against Bacillus subtilis after 18 hr by broth microdilution technique; type: functional
Klebsiella pneumoniae = assay: Antibacterial activity against Klebsiella pneumoniae after 18 hr by broth microdilution technique; type: functional
[1] = system: Mycobacterium tuberculosis; assay: Antimycobacterial activity against Mycobacterium tuberculosis H37Rv after 21 days by broth dilution method; type: functional; settings: 504 h
Aspergillus niger = assay: Antifungal activity against Aspergillus niger after 18 hr by broth microdilution technique; type: functional

Row | Structure (SMILES) | MIC (Escherichia coli) | MIC (Candida tropicalis) | MIC (Pseudomonas aeruginosa) | IC50 (A549) | MIC (Enterococcus faecalis) | IC50 (Vero) | MIC (Saccharomyces cerevisiae) | MIC (Staphylococcus aureus) | MIC (Bacillus subtilis) | MIC (Klebsiella pneumoniae) | MIC [1] | MIC (Aspergillus niger)
1 | O=C(NNC(=O)c1ccc(F)c(C(F)(F)F)c1)c1ccc(-n2cccc2)cc1 | 8 µg/mL (≈ 20.4 µM) | 4 µg/mL (≈ 10.2 µM) | 8 µg/mL (≈ 20.4 µM) | 200 µM | 31.2 µg/mL (≈ 79.9 µM) | 196 µM | 16 µg/mL (≈ 40.9 µM) | 62.5 µg/mL (≈ 160 µM) | 16 µg/mL (≈ 40.9 µM) | > 500 µg/mL | 8 µg/mL (≈ 20.4 µM) | 8 µg/mL (≈ 20.4 µM)
2 | CC(=O)N1N=C(c2ccc(-n3c(C)ccc3C)cc2)OC1c1cccc([N+](=O)[O-])c1 (stereo not given) | 62.5 µg/mL (≈ 155 µM) | 8 µg/mL (≈ 19.8 µM) | 62.5 µg/mL (≈ 155 µM) | 197 µM | 31.2 µg/mL (≈ 77.3 µM) | 188 µM | 31.2 µg/mL (≈ 77.3 µM) | 31.2 µg/mL (≈ 77.3 µM) | 16 µg/mL (≈ 39.6 µM) | 62.5 µg/mL (≈ 155 µM) | 31.2 µg/mL (≈ 77.3 µM) | 8 µg/mL (≈ 19.8 µM)
3 | CC(=O)N1N=C(c2ccc(-n3c(C)ccc3C)cc2)OC1c1ccc(N(C)C)cc1 (stereo not given) | 500 µg/mL (≈ 1240 µM) | 31.2 µg/mL (≈ 77.6 µM) | 500 µg/mL (≈ 1240 µM) | 186 µM | 31.2 µg/mL (≈ 77.6 µM) | 175 µM | 31.2 µg/mL (≈ 77.6 µM) | 31.2 µg/mL (≈ 77.6 µM) | 16 µg/mL (≈ 39.8 µM) | 31.2 µg/mL (≈ 77.6 µM) | 16 µg/mL (≈ 39.8 µM) | 31.2 µg/mL (≈ 77.6 µM)
4 | O=C(NNC(=O)c1ccccc1Br)c1ccc(-n2cccc2)cc1 | 16 µg/mL (≈ 41.6 µM) | 8 µg/mL (≈ 20.8 µM) | 16 µg/mL (≈ 41.6 µM) | 201 µM | 62.5 µg/mL (≈ 163 µM) | 198 µM | 31.2 µg/mL (≈ 81.3 µM) | 62.5 µg/mL (≈ 163 µM) | 16 µg/mL (≈ 41.6 µM) | > 500 µg/mL | 8 µg/mL (≈ 20.8 µM) | 16 µg/mL (≈ 41.6 µM)
5 | O=[N+]([O-])c1ccc(-c2nnc(-c3ccc(-n4cccc4)cc3)o2)cc1 | 4 µg/mL (≈ 12 µM) | 31.2 µg/mL (≈ 94 µM) | 4 µg/mL (≈ 12 µM) | 258 µM | 16 µg/mL (≈ 48.1 µM) | 258 µM | 31.2 µg/mL (≈ 94 µM) | 31.2 µg/mL (≈ 94 µM) | 4 µg/mL (≈ 12 µM) | > 500 µg/mL | 2 µg/mL (≈ 6.02 µM) | 31.2 µg/mL (≈ 94 µM)
6 | CC(=O)NNC(=O)c1ccc(-n2c(C)ccc2C)cc1 | 500 µg/mL (≈ 1840 µM) | 62.5 µg/mL (≈ 230 µM) | 500 µg/mL (≈ 1840 µM) | 180 µM | 31.2 µg/mL (≈ 115 µM) | 172 µM | 62.5 µg/mL (≈ 230 µM) | 31.2 µg/mL (≈ 115 µM) | 16 µg/mL (≈ 59 µM) | 500 µg/mL (≈ 1840 µM) | 4 µg/mL (≈ 14.7 µM) | 62.5 µg/mL (≈ 230 µM)
7 | O=C(NNC(=O)c1ccc(-n2cccc2)cc1)c1ccccc1 | 31.2 µg/mL (≈ 102 µM) | 31.2 µg/mL (≈ 102 µM) | 62.5 µg/mL (≈ 205 µM) | 215 µM | 62.5 µg/mL (≈ 205 µM) | 200 µM | 31.2 µg/mL (≈ 102 µM) | 62.5 µg/mL (≈ 205 µM) | 16 µg/mL (≈ 52.4 µM) | > 500 µg/mL | 8 µg/mL (≈ 26.2 µM) | 31.2 µg/mL (≈ 102 µM)
8 | Cc1ccc(C)n1-c1ccc(-c2n[nH]c(=S)n2N)cc1 | 500 µg/mL (≈ 1750 µM) | 2 µg/mL (≈ 7.01 µM) | 500 µg/mL (≈ 1750 µM) | 170 µM | 16 µg/mL (≈ 56.1 µM) | 160 µM | 4 µg/mL (≈ 14 µM) | 16 µg/mL (≈ 56.1 µM) | 31.2 µg/mL (≈ 110 µM) | 500 µg/mL (≈ 1750 µM) | 4 µg/mL (≈ 14 µM) | 4 µg/mL (≈ 14 µM)
9 | Cc1ccc(C)n1-c1ccc(-c2nnc(S)o2)cc1 | 62.5 µg/mL (≈ 230 µM) | 2 µg/mL (≈ 7.37 µM) | 62.5 µg/mL (≈ 230 µM) | 254 µM | 4 µg/mL (≈ 14.7 µM) | 261 µM | 8 µg/mL (≈ 29.5 µM) | 2 µg/mL (≈ 7.37 µM) | 4 µg/mL (≈ 14.7 µM) | 62.5 µg/mL (≈ 230 µM) | 2 µg/mL (≈ 7.37 µM) | 8 µg/mL (≈ 29.5 µM)
10 | Brc1ccccc1-c1nnc(-c2ccc(-n3cccc3)cc2)o1 | 8 µg/mL (≈ 21.8 µM) | 4 µg/mL (≈ 10.9 µM) | 8 µg/mL (≈ 21.8 µM) | 252 µM | 31.2 µg/mL (≈ 85.3 µM) | 258 µM | 31.2 µg/mL (≈ 85.3 µM) | 31.2 µg/mL (≈ 85.3 µM) | 8 µg/mL (≈ 21.8 µM) | > 500 µg/mL | 8 µg/mL (≈ 21.8 µM) | 16 µg/mL (≈ 43.7 µM)
11 | O=C(NNC(=O)c1ccc(-n2cccc2)cc1)c1ccc(Br)cc1 | 16 µg/mL (≈ 41.6 µM) | 8 µg/mL (≈ 20.8 µM) | 16 µg/mL (≈ 41.6 µM) | 201 µM | 31.2 µg/mL (≈ 81.3 µM) | 186 µM | 31.2 µg/mL (≈ 81.3 µM) | 62.5 µg/mL (≈ 163 µM) | 16 µg/mL (≈ 41.6 µM) | > 500 µg/mL | 8 µg/mL (≈ 20.8 µM) | 16 µg/mL (≈ 41.6 µM)
12 | c1ccc(-c2nnc(-c3ccc(-n4cccc4)cc3)o2)cc1 | 8 µg/mL (≈ 27.8 µM) | 31.2 µg/mL (≈ 109 µM) | 8 µg/mL (≈ 27.8 µM) | 256 µM | 31.2 µg/mL (≈ 109 µM) | 250 µM | 31.2 µg/mL (≈ 109 µM) | 31.2 µg/mL (≈ 109 µM) | 8 µg/mL (≈ 27.8 µM) | > 500 µg/mL | 8 µg/mL (≈ 27.8 µM) | 31.2 µg/mL (≈ 109 µM)
13 | CC(=O)N1N=C(c2ccc(-n3c(C)ccc3C)cc2)OC1c1ccccc1 (stereo not given) | 500 µg/mL (≈ 1390 µM) | 16 µg/mL (≈ 44.5 µM) | 500 µg/mL (≈ 1390 µM) | 198 µM | 62.5 µg/mL (≈ 174 µM) | 190 µM | 62.5 µg/mL (≈ 174 µM) | 62.5 µg/mL (≈ 174 µM) | 16 µg/mL (≈ 44.5 µM) | 62.5 µg/mL (≈ 174 µM) | 16 µg/mL (≈ 44.5 µM) | 31.2 µg/mL (≈ 86.9 µM)
14 | Cc1ccc(C)n1NC(=O)c1ccc(-n2c(C)ccc2C)cc1 | 500 µg/mL (≈ 1630 µM) | 4 µg/mL (≈ 13 µM) | 500 µg/mL (≈ 1630 µM) | 225 µM | 16 µg/mL (≈ 52 µM) | 230 µM | 16 µg/mL (≈ 52 µM) | 2 µg/mL (≈ 6.51 µM) | 16 µg/mL (≈ 52 µM) | 62.5 µg/mL (≈ 203 µM) | 2 µg/mL (≈ 6.51 µM) | 16 µg/mL (≈ 52 µM)
15 | CC(=O)N1N=C(c2ccc(-n3c(C)ccc3C)cc2)OC1c1ccccc1[N+](=O)[O-] (stereo not given) | 500 µg/mL (≈ 1240 µM) | 8 µg/mL (≈ 19.8 µM) | 500 µg/mL (≈ 1240 µM) | 182 µM | 31.2 µg/mL (≈ 77.3 µM) | 175 µM | 31.2 µg/mL (≈ 77.3 µM) | 31.2 µg/mL (≈ 77.3 µM) | 16 µg/mL (≈ 39.6 µM) | 500 µg/mL (≈ 1240 µM) | 31.2 µg/mL (≈ 77.3 µM) | 8 µg/mL (≈ 19.8 µM)
